The target of one test is T1, BRD4-BD1 (Homo sapiens, UniProt O60885).
T1 construct: made in house; host or cells: T7 phage grown in an E. coli host derived from the BL21 strain
Description: Binding affinity to BRD4-BD1 (bromoKdELECT assay). The note with it: 11-point 3-fold dilution series.

The next test deals with T47D cells. Description: Cellular Growth Inhibition Assay for T47D Cells (CellTiter-Glo). It counts as cell-based, human. The note with it: 72 hours. In a few lines: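 GI50 values derive from four-parameter regression of CellTiter-Glo 2.0 luminescence, using zero luminescence as baseline. Human breast cancer T47D cells (3000/well; DMEM, 10% FBS, 0.2 units/mL insulin) were exposed for 72 h to compound dilutions at 0.5% DMSO, with dosing starting 24 h after seeding.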

Compound `CC(C)c1ccc(Oc2cccc(OCCN3CCN(c4ncc(C(=O)NC5C(C)(C)C(Oc6ccc(C#N)c(Cl)c6)C5(C)C)cn4)CC3)c2)c(-c2cn(C)c(=O)c3[nH]ccc23)c1` (stereo not shown) [Compound I-107, N-[3-(3-chloro-4-cyano-phenoxy)-2,2,4,4-tetramethyl-cyclobutyl]-2-[4-[2-[3-[4-isopropyl-2-(6-methyl-7-oxo-1H-pyrrolo[2,3-c]pyridin-4-yl)phenoxy]phenoxy]ethyl]piperazin-1-yl]pyrimidine-5-carboxamide] came in with a Kd on BRD4-BD1 of 50 to 500 nM. The concentration for 50% growth inhibition (GI50) in the test on T47D cells (Homo sapiens) was under 500 nM.

`CCS(=O)(=O)Nc1ccc(Oc2cccc(OCCOCCOCCOC3CCN(c4ncc(C(=O)N[C@H]5C(C)(C)[C@H](Oc6ccc(C#N)c(Cl)c6)C5(C)C)cn4)CC3)c2)c(-c2cn(C)c(=O)c3[nH]ccc23)c1` [Compound I-7] yielded a Kd on BRD4-BD1 of 500 to 2500 nM. Also, the GI50 with T47D cells (Homo sapiens) was under 500 nM.

Regarding `CN(c1ccc(Oc2cccc(N3CC(N4CCN(c5ncc(C(=O)N[C@H]6C(C)(C)[C@H](Oc7ccc(C#N)c(Cl)c7)C6(C)C)cn5)CC4)C3)c2)c(-c2cn(C)c(=O)c3[nH]ccc23)c1)S(=O)(=O)C1CC1` [Compound I-88, N-((1r, 3r)-3-(3-chloro-4-cyanophenoxy)-2,2,4,4-tetramethylcyclobutyl)-2-(4-(1-(3-(2-(6-methyl-7-oxo-6,7-dihydro-1H-pyrrolo[2,3-c]pyridin-4-yl)-4-(N-methylcyclopropanesulfonamido)phenoxy)phenyl)azetidin-3-yl)piperazin-1-yl)pyrimidine-5-carboxamide], the Kd on BRD4-BD1 is 500 to 2500 nM. In addition, the GI50 in the test with T47D cells (Homo sapiens) was in the range of 500 to 1500 nM.

`CCS(=O)(=O)Nc1ccc(Oc2cccc(N3CC(OC4CCN(c5ncc(C(=O)N[C@H]6C(C)(C)[C@H](Oc7ccc(C#N)c(Cl)c7)C6(C)C)cn5)CC4)C3)c2)c(-c2cn(C)c(=O)c3[nH]ccc23)c1` [Compound I-80]: the Kd at BRD4-BD1 lay in the range of 50 to 500 nM. The GI50 in the test with T47D cells (Homo sapiens) is under 500 nM.

On to `Cn1cc(-c2ccccc2Oc2cccc(OCCN3CCN(c4ncc(C(=O)N[C@H]5C(C)(C)[C@H](Oc6ccc(C#N)c(Cl)c6)C5(C)C)cn4)CC3)c2)c2cc[nH]c2c1=O` [Compound I-98], for which, on BRD4-BD1, the Kd was over 2500 nM. The GI50 in the test on T47D cells (Homo sapiens) is under 500 nM.

For the compound `Cn1cc(-c2ccccc2Oc2cccc(N3CC(N4CCN(c5ncc(C(=O)N[C@H]6C(C)(C)[C@H](Oc7ccc(C#N)c(Cl)c7)C6(C)C)cn5)CC4)C3)c2F)c2cc[nH]c2c1=O` [Compound I-94], the Kd at BRD4-BD1 was in the range of 500 to 2500 nM. For the same compound, the GI50 with T47D cells (Homo sapiens) lay in the range of 500 to 1500 nM.

On to `CCS(=O)(=O)Nc1ccc(Oc2ccc(F)c(OCCOC3CCN(c4ncc(C(=O)N[C@H]5C(C)(C)[C@H](Oc6ccc(C#N)c(Cl)c6)C5(C)C)cn4)CC3)c2F)c(-c2cn(C)c(=O)c3[nH]ccc23)c1` [Compound I-65], for which the Kd at BRD4-BD1 lay within 500 to 2500 nM. This compound also gave a 50% growth inhibitory concentration (GI50) with T47D cells (Homo sapiens) of under 500 nM.

Compound `Cn1cc(-c2ccccc2Oc2cccc(OCCOC3CCN(c4ncc(C(=O)N[C@H]5C(C)(C)[C@H](Oc6ccc(C#N)c(Cl)c6)C5(C)C)cn4)CC3)c2)c2cc[nH]c2c1=O` [Compound I-61, N-((1r, 3r)-3-(3-chloro-4-cyanophenoxy)-2,2,4,4-tetramethylcyclobutyl)-2-(4-(2-(3-(2-(6-methyl-7-oxo-6,7-dihydro-1H-pyrrolo[2,3-c]pyridin-4-yl)phenoxy)phenoxy)ethoxy)piperidin-1-yl)pyrimidine-5-carboxamide] returned a Kd on BRD4-BD1 of over 2500 nM. This compound also came in with a GI50 with T47D cells (Homo sapiens) of under 500 nM.

For the compound `CCS(=O)(=O)Nc1ccc(Oc2cccc(OCCOC3CCN(c4ncc(C(=O)N[C@H]5C(C)(C)[C@H](Oc6ccc(C#N)c(Cl)c6)C5(C)C)cn4)CC3)c2)c(-c2cn(C)c(=O)c3[nH]ccc23)c1` [Compound I-6], the Kd on BRD4-BD1 was over 2500 nM. In the test with T47D cells (Homo sapiens), this compound returned a GI50 of under 500 nM.

`CN(c1ccc(Oc2cccc(N3CC(N4CCN(c5ncc(C(=O)N[C@H]6C(C)(C)[C@H](Oc7ccc(C#N)c(Cl)c7)C6(C)C)cn5)CC4)C3)c2F)c(-c2cn(C)c(=O)c3[nH]ccc23)c1)S(=O)(=O)C1CC1` [Compound I-91]: the Kd on BRD4-BD1 was 50 to 500 nM. In the test with T47D cells (Homo sapiens), the GI50 lay within 500 to 1500 nM.

With `CCS(=O)(=O)Cc1ccc(Oc2cccc(OCCOC3CCN(c4ncc(C(=O)N[C@H]5C(C)(C)[C@H](Oc6ccc(C#N)c(Cl)c6)C5(C)C)cn4)CC3)c2)c(-c2cn(C)c(=O)c3[nH]ccc23)c1` [Compound I-54, N-((1r, 3r)-3-(3-chloro-4-cyanophenoxy)-2,2,4,4-tetramethylcyclobutyl)-2-(4-(2-(3-(4-((ethylsulfonyl)methyl)-2-(6-methyl-7-oxo-6,7-dihydro-1H-pyrrolo[2,3-c]pyridin-4-yl)phenoxy)phenoxy)ethoxy)piperidin-1-yl)pyrimidine-5-carboxamide], on BRD4-BD1, the Kd was over 2500 nM. For the same compound, in the test on T47D cells (Homo sapiens), the GI50 is under 500 nM.

At BRD4-BD1, `Cc1ccc(CCCOC2CCN(c3ncc(C(=O)N[C@H]4C(C)(C)[C@H](Oc5ccc(C#N)c(Cl)c5)C4(C)C)cn3)CC2)c(C)c1Oc1ccc(C(C)(C)O)cc1-c1cn(C)c(=O)c2[nH]ccc12` [Compound I-195] showed a Kd of over 2500 nM. Also, the GI50 in the test with T47D cells (Homo sapiens) was 500 to 1500 nM.

For the compound `Cn1cc(-c2cc(C(C)(C)O)ccc2Oc2cccc(N3CC(N4CCN(c5ncc(C(=O)N[C@H]6C(C)(C)[C@H](Oc7ccc(C#N)c(Cl)c7)C6(C)C)cn5)CC4)C3)c2)c2cc[nH]c2c1=O` [Compound I-105], at BRD4-BD1, the Kd fell in the range of 500 to 2500 nM. In the test with T47D cells (Homo sapiens), this compound registered a GI50 of 500 to 1500 nM.

Take `Cn1cc(-c2cc(C(C)(C)O)ccc2Oc2ccc(N3CC(CN4CC5CC4CN5c4ncc(C(=O)N[C@H]5C(C)(C)[C@H](Oc6ccc(C#N)c(Cl)c6)C5(C)C)cn4)C3)cc2)c2cc[nH]c2c1=O` (stereo partly shown) [Compound I-228]: the Kd on BRD4-BD1 is under 50 nM. Further, the GI50 in the test on T47D cells (Homo sapiens) was under 500 nM.

On to `CCS(=O)(=O)c1ccc(OCC(CCCN2CCN(c3ncc(C(=O)NC4C(C)(C)C(Oc5ccc(C#N)c(Cl)c5)C4(C)C)cn3)CC2)C2CC2)c(-c2cn(C)c(=O)c3[nH]ccc23)c1` (stereo not shown) [Compound I-231, N-[3-(3-chloro-4-cyano-phenoxy)-2,2,4,4-tetramethyl-cyclobutyl]-2-[4-[4-cyclopropyl-5-[4-ethylsulfonyl-2-(6-methyl-7-oxo-1H-pyrrolo[2,3-c]pyridin-4-yl)phenoxy]pentyl]piperazin-1-yl]pyrimidine-5-carboxamide], for which the Kd on BRD4-BD1 is under 50 nM. This compound gave a GI50 in the test on T47D cells (Homo sapiens) of under 500 nM.

At BRD4-BD1, `Cn1cc(-c2cc(C(C)(C)O)ccc2Oc2cccc(N3CC(CC4CCN(c5ncc(C(=O)N[C@H]6C(C)(C)[C@H](Oc7ccc(C#N)c(Cl)c7)C6(C)C)cn5)CC4)C3)c2F)c2cc[nH]c2c1=O` [Compound I-196] had a Kd of 50 to 500 nM. Further, the GI50 with T47D cells was 500 to 1500 nM.

For `CCS(=O)(=O)Nc1ccc(Oc2ccc(OCC3CCN(c4ncc(C(=O)N[C@H]5C(C)(C)[C@H](Oc6ccc(C#N)c(Cl)c6)C5(C)C)cn4)CC3)cc2)c(-c2cn(C)c(=O)c3[nH]ccc23)c1` [Compound I-138], on BRD4-BD1, the Kd is over 2500 nM. The same compound displayed a GI50 in the test on T47D cells of under 500 nM.

In turn, `CN(CCCc1ccc(Oc2ccc(C(C)(C)O)cc2-c2cn(C)c(=O)c3[nH]ccc23)cc1)c1ncc(C(=O)N[C@H]2C(C)(C)[C@H](Oc3ccc(C#N)c(Cl)c3)C2(C)C)cn1` [Compound I-211] came in with a Kd at BRD4-BD1 of over 2500 nM. For the same compound, in the test on T47D cells (Homo sapiens), the GI50 is under 500 nM.

In turn, `Cn1cc(-c2cc(C(C)(C)O)ccc2Oc2cccc(OCCC3CCN(c4ncc(C(=O)N[C@H]5C(C)(C)[C@H](Oc6ccc(C#N)c(Cl)c6)C5(C)C)cn4)CC3)c2F)c2cc[nH]c2c1=O` [Compound I-142] gave a Kd on BRD4-BD1 of over 2500 nM. For the same compound, in the test on T47D cells (Homo sapiens), the GI50 was 500 to 1500 nM.

`Cn1cc(-c2cc(C(C)(C)O)ccc2Oc2ccc(CCOC3CCN(c4ncc(C(=O)N[C@H]5C(C)(C)[C@H](Oc6ccc(C#N)c(Cl)c6)C5(C)C)cn4)CC3)cc2)c2cc[nH]c2c1=O` [Compound I-194]: the Kd at BRD4-BD1 is over 2500 nM. Also, in the test with T47D cells (Homo sapiens), the GI50 lay in the range of 500 to 1500 nM.
